# Experimental data as given in patent US6670348B1, “Methods and compositions for destruction of selected proteins” (Sloan-Kettering Institute for Cancer Research, priority 1997, dated 2003).
# Experiments:
# ErbB2 [1] = experiment: Immunoblotting for receptor presence in MCF-7 cells exposed to compound; assay type: cell-based; parameters: key: +: the receptor was detected by immunoblotting; −: it was not detectable; ±: a weak or equivocal result
# [2] = test system: insulin-like growth factor 1 receptor (IGF1-R); experiment: as above; assay type: cell-based; parameters: key to IGFI-R detected by immunoblotting: +: the receptor was detected by immunoblotting; −: it was not detectable; ±: a weak or equivocal result; conditions: for IGFI-R detected by immunoblotting: Table 2
# ErbB2 [3] = experiment: Immunoblotting for receptor presence in LNCaP prostate cancer cells; assay type: cell-based; parameters: key: +: the receptor was detected by immunoblotting; −: it was not detectable; ±: a weak or equivocal result; conditions: Table 3
# androgen receptor = experiment: as above; assay type: cell-based; parameters: key to androgen receptor detected by immunoblotting: +: the receptor was detected by immunoblotting; −: it was not detectable; ±: a weak or equivocal result; conditions: for androgen receptor detected by immunoblotting: Table 3
# Raf-1 [4] = experiment: Immunoblotting for receptor presence in MCF-7 cells exposed to compound; assay type: cell-based; parameters: key: +: the receptor was detected by immunoblotting; −: it was not detectable; ±: a weak or equivocal result
# estrogen receptor [5] = biological target: T1, estrogen receptor (Homo sapiens, UniProt P03372); experiment: as above; assay type: cell-based
# T1 construct: testing for the presence of the receptor using receptor-specific antibodies in an immunoblotting experiment; endogenous in cells; host or cells: MCF-7
# Description: (§1) The effects of these compounds on receptor of various types were evaluated by exposing MCF-7 breast cancer cells, in vitro, to 1 μM levels of the compounds for varying periods of time, and then testing for the presence of the receptor using receptor-specific antibodies in an immunoblotting experiment.
# Raf-1 [6] = experiment: Relative activity of FIG. 9A-9G compounds; assay type: cell-based; parameters: key: ++++: most active; −: minimal activity; conditions: Table 4
# Excerpt: The compounds of FIGS. 9A-9G have been tested for activity with respect to erbB2 (Her2), raf-1 and estrogen receptors.
# PI3 kinase = experiment: Inhibition of PI3 kinase activity; assay type: biochemical; conditions: FIG. 12
# estrogen receptor [7] = biological target: T1, estrogen receptor; experiment: Relative activity of FIG. 9A-9G compounds; assay type: cell-based; parameters: key to the marks not given beside the values; conditions: Table 4
# [8] = test system: estrogen receptors and ErbB2 receptors; experiment: Selectivity across receptor panel, immunoblotting in MCF-7 cells; assay type: cell-based; conditions: 1 μM
# Description: as §1, with “experiment. The results are summarized in Table 1, where GM-4-E2 indicates a geldanamycin-estradiol compound with a 4-carbon tether.” for “experiment.”
# ErbB2 [9] = experiment: Immunoblotting of LN-CAP cells exposed to GM or GM-T (Example 2); assay type: cell-based; conditions: immunoblotting over time, geldanamycin at 0.25 and 1 ug/ml, FIG. 8A
# [10] = MCF-7 cells, 1 μM, exposure time 0 hours, Table 1
# [11] = MCF-7 cells, 1 μM, exposure time 3 hours, Table 1
# [12] = MCF-7 cells, 1 μM, exposure time 6 hours, Table 1
# [13] = MCF-7 cells, 1 μM, exposure time 12 hours, Table 1
# [14] = MCF-7 cells, 1 μM, exposure time 24 hours, Table 1
# [15] = repeat experiment (Example 5), exposure time 0 hours, Table 2
# [16] = repeat experiment (Example 5), exposure time 6 hours, Table 2
# [17] = repeat experiment (Example 5), exposure time 12 hours, Table 2
# [18] = repeat experiment (Example 5), exposure time 24 hours, Table 2
# [19] = Example 5, exposure time 0 hours
# [20] = Example 5, exposure time 6 hours
# [21] = Example 5, exposure time 12 hours
# [22] = Example 5, exposure time 24 hours
# T1 sequence (P03372 whole entry): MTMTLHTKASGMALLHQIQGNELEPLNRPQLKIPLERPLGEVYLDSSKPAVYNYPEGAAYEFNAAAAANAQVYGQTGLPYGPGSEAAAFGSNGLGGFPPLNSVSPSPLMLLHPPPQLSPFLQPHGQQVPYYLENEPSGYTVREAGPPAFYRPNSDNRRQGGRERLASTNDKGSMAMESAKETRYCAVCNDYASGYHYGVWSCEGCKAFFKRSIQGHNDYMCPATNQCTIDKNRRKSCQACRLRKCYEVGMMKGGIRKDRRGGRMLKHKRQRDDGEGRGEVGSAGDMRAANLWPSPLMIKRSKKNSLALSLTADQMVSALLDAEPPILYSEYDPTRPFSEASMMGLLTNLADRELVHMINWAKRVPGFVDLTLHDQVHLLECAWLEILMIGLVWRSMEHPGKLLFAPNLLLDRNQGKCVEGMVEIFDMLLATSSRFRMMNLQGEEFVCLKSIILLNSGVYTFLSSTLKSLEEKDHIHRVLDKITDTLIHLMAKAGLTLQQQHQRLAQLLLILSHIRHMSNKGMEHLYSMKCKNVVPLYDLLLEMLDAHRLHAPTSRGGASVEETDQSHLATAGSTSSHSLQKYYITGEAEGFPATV
smiles,measurement,setting,value
"COC1=C2C[C@@H](C)C[C@H](OC)[C@H](O)[C@@H](C)/C=C(\C)[C@H](OC(N)=O)[C@@H](OC)/C=C\C=C(/C)C(=O)NC(=CC1=O)C2=O [GM, geldanamycin, reference compound]",ErbB2 detected by immunoblotting,ErbB2 [1]; [10],+
same,ErbB2 detected by immunoblotting,ErbB2 [1]; [11],−
same,ErbB2 detected by immunoblotting,ErbB2 [1]; [12],−
same,ErbB2 detected by immunoblotting,ErbB2 [1]; [13],−
same,ErbB2 detected by immunoblotting,ErbB2 [1]; [14],−
same,ErbB2 detected by immunoblotting,ErbB2 [1]; [15],+
same,ErbB2 detected by immunoblotting,ErbB2 [1]; [16],−
same,ErbB2 detected by immunoblotting,ErbB2 [1]; [17],−
same,ErbB2 detected by immunoblotting,ErbB2 [1]; [18],−
same,IGFI-R detected by immunoblotting,[2]; [19],+
same,IGFI-R detected by immunoblotting,[2]; [20],+
same,IGFI-R detected by immunoblotting,[2]; [21],+
same,IGFI-R detected by immunoblotting,[2]; [22],−
same,ErbB2 detected by immunoblotting,ErbB2 [3]; exposure time 0 hours,+
same,ErbB2 detected by immunoblotting,ErbB2 [3]; exposure time 3 hours,+
same,ErbB2 detected by immunoblotting,ErbB2 [3]; exposure time 6 hours,−
same,ErbB2 detected by immunoblotting,ErbB2 [3]; exposure time 12 hours,−
same,ErbB2 detected by immunoblotting,ErbB2 [3]; exposure time 24 hours,−
same,androgen receptor detected by immunoblotting,androgen receptor; exposure time 0 hours,+
same,androgen receptor detected by immunoblotting,androgen receptor; exposure time 3 hours,+
same,androgen receptor detected by immunoblotting,androgen receptor; exposure time 6 hours,+
same,androgen receptor detected by immunoblotting,androgen receptor; exposure time 12 hours,+
same,androgen receptor detected by immunoblotting,androgen receptor; exposure time 24 hours,−
same,Raf-1 detected by immunoblotting,Raf-1 [4]; [10],+
same,Raf-1 detected by immunoblotting,Raf-1 [4]; [11],+
same,Raf-1 detected by immunoblotting,Raf-1 [4]; [12],+
same,Raf-1 detected by immunoblotting,Raf-1 [4]; [13],−
same,Raf-1 detected by immunoblotting,Raf-1 [4]; [14],−
same,Raf-1 detected by immunoblotting,Raf-1 [4]; [15],+
same,Raf-1 detected by immunoblotting,Raf-1 [4]; [16],+
same,Raf-1 detected by immunoblotting,Raf-1 [4]; [17],−
same,Raf-1 detected by immunoblotting,Raf-1 [4]; [18],−
COC1C=CC=C(C)C(=O)NC2=CC(=O)C(NCCCCCCN(C)CCCCCCC3(O)CCC4C5CCc6cc(O)ccc6C5CCC43C)=C(CC(C)CC(OC)C(O)C(C)C=C(C)C1OC(N)=O)C2=O (stereo not drawn) [GM-13-E2],estrogen receptor detected by immunoblotting,estrogen receptor [5]; [10],+
same,estrogen receptor detected by immunoblotting,estrogen receptor [5]; [11],+
same,estrogen receptor detected by immunoblotting,estrogen receptor [5]; [12],+
same,estrogen receptor detected by immunoblotting,estrogen receptor [5]; [13],±
same,estrogen receptor detected by immunoblotting,estrogen receptor [5]; [14],−
same,ErbB2 detected by immunoblotting,ErbB2 [1]; [10],+
same,ErbB2 detected by immunoblotting,ErbB2 [1]; [11],+
same,ErbB2 detected by immunoblotting,ErbB2 [1]; [12],+
same,ErbB2 detected by immunoblotting,ErbB2 [1]; [13],+
same,ErbB2 detected by immunoblotting,ErbB2 [1]; [14],−
same,Raf-1 detected by immunoblotting,Raf-1 [4]; [10],+
same,Raf-1 detected by immunoblotting,Raf-1 [4]; [11],+
same,Raf-1 detected by immunoblotting,Raf-1 [4]; [12],+
same,Raf-1 detected by immunoblotting,Raf-1 [4]; [13],+
same,Raf-1 detected by immunoblotting,Raf-1 [4]; [14],+
COC1C=CC=C(C)C(=O)NC2=CC(=O)C(NCCCCCCC3(O)CCC4C5CCc6cc(O)ccc6C5CCC43C)=C(CC(C)CC(OC)C(O)C(C)C=C(C)C1OC(N)=O)C2=O (stereo not drawn) [FIG. 9E],"relative activity, raf-1",Raf-1 [6],−
CCCCCCN(C)C=C1C(=O)OC(COC)C2(C)C1=C(O)C(=O)C1=C2C(OC(C)=O)CC2(C)C(=O)CCC12 (stereo not drawn) [E-analog 2],inhibition of PI3 kinase activity,PI3 kinase,inhibits PI3 kinase activity
COC1C=CC=C(C)C(=O)NC2=CC(=O)C(NCC=CCC3CC4C5CCc6cc(O)ccc6C5CCC4(C)C3O)=C(CC(C)CC(OC)C(O)C(C)C=C(C)C1OC(N)=O)C2=O (stereo not drawn) [GM-4-E2],"relative activity, estrogen receptor",estrogen receptor [7],++++
same,estrogen receptor detected by immunoblotting,estrogen receptor [5]; [10],+
same,estrogen receptor detected by immunoblotting,estrogen receptor [5]; [11],±
same,estrogen receptor detected by immunoblotting,estrogen receptor [5]; [12],−
same,estrogen receptor detected by immunoblotting,estrogen receptor [5]; [13],−
same,estrogen receptor detected by immunoblotting,estrogen receptor [5]; [14],−
same,estrogen receptor detected by immunoblotting,estrogen receptor [5]; [15],+
same,estrogen receptor detected by immunoblotting,estrogen receptor [5]; [16],−
same,estrogen receptor detected by immunoblotting,estrogen receptor [5]; [17],−
same,estrogen receptor detected by immunoblotting,estrogen receptor [5]; [18],−
same,ErbB2 detected by immunoblotting,ErbB2 [1]; [10],+
same,ErbB2 detected by immunoblotting,ErbB2 [1]; [11],±
same,ErbB2 detected by immunoblotting,ErbB2 [1]; [12],−
same,ErbB2 detected by immunoblotting,ErbB2 [1]; [13],−
same,ErbB2 detected by immunoblotting,ErbB2 [1]; [14],−
same,ErbB2 detected by immunoblotting,ErbB2 [1]; [15],+
same,ErbB2 detected by immunoblotting,ErbB2 [1]; [16],±
same,ErbB2 detected by immunoblotting,ErbB2 [1]; [17],−
same,ErbB2 detected by immunoblotting,ErbB2 [1]; [18],−
same,IGFI-R detected by immunoblotting,[2]; [19],+
same,IGFI-R detected by immunoblotting,[2]; [20],+
same,IGFI-R detected by immunoblotting,[2]; [21],+
same,IGFI-R detected by immunoblotting,[2]; [22],+
same,effect on IGF1-R compared with geldanamycin alone,"[2]; Example 5, in words",less injurious to IGF1-R than geldanamycin alone
same,selectivity for estrogen receptors and ErbB2 receptors compared to geldanamycin alone,[8],most pronounced
same,"relative activity, raf-1",Raf-1 [6],−
same,ErbB2 detected by immunoblotting,ErbB2 [3]; exposure time 0 hours,+
same,ErbB2 detected by immunoblotting,ErbB2 [3]; exposure time 3 hours,+
same,ErbB2 detected by immunoblotting,ErbB2 [3]; exposure time 6 hours,+
same,ErbB2 detected by immunoblotting,ErbB2 [3]; exposure time 12 hours,−
same,ErbB2 detected by immunoblotting,ErbB2 [3]; exposure time 24 hours,−
same,androgen receptor detected by immunoblotting,androgen receptor; exposure time 0 hours,+
same,androgen receptor detected by immunoblotting,androgen receptor; exposure time 3 hours,+
same,androgen receptor detected by immunoblotting,androgen receptor; exposure time 6 hours,+
same,androgen receptor detected by immunoblotting,androgen receptor; exposure time 12 hours,+
same,androgen receptor detected by immunoblotting,androgen receptor; exposure time 24 hours,+
same,destruction of androgen receptors,androgen receptor; in words,does not
same,Raf-1 detected by immunoblotting,Raf-1 [4]; [10],+
same,Raf-1 detected by immunoblotting,Raf-1 [4]; [11],+
same,Raf-1 detected by immunoblotting,Raf-1 [4]; [12],+
same,Raf-1 detected by immunoblotting,Raf-1 [4]; [13],+
same,Raf-1 detected by immunoblotting,Raf-1 [4]; [14],+
same,Raf-1 detected by immunoblotting,Raf-1 [4]; [15],+
same,Raf-1 detected by immunoblotting,Raf-1 [4]; [16],+
same,Raf-1 detected by immunoblotting,Raf-1 [4]; [17],+
same,Raf-1 detected by immunoblotting,Raf-1 [4]; [18],+
"COC1C=CC=C(C)C(=O)NC2=CC(=O)C(NCCCCCCC#CC3(O)CCC4C5CCC6=CC(=O)CCC6(C)C5CCC43C)=C(CC(C)CC(OC)C(O)C(C)C=C(C)C1OC(N)=O)C2=O (stereo not drawn) [GM-T, 17-testosterone-tethered-17-demethoxy-17-GM]",reduction of levels of ErbB2,ErbB2 [9],the least reduction was observed
COC1C=CC=C(C)C(=O)NC2=CC(=O)C(NCCCCNCCCCCCC3(O)CCC4C5CCc6cc(O)ccc6C5CCC43C)=C(CC(C)CC(OC)C(O)C(C)C=C(C)C1OC(N)=O)C2=O (stereo not drawn) [GM-10-E2],estrogen receptor detected by immunoblotting,estrogen receptor [5]; [10],+
same,estrogen receptor detected by immunoblotting,estrogen receptor [5]; [11],+
same,estrogen receptor detected by immunoblotting,estrogen receptor [5]; [12],+
same,estrogen receptor detected by immunoblotting,estrogen receptor [5]; [13],±
same,estrogen receptor detected by immunoblotting,estrogen receptor [5]; [14],+
same,ErbB2 detected by immunoblotting,ErbB2 [1]; [10],+
same,ErbB2 detected by immunoblotting,ErbB2 [1]; [11],+
same,ErbB2 detected by immunoblotting,ErbB2 [1]; [12],+
same,ErbB2 detected by immunoblotting,ErbB2 [1]; [13],+
same,ErbB2 detected by immunoblotting,ErbB2 [1]; [14],−
same,Raf-1 detected by immunoblotting,Raf-1 [4]; [10],+
same,Raf-1 detected by immunoblotting,Raf-1 [4]; [11],+
same,Raf-1 detected by immunoblotting,Raf-1 [4]; [12],+
same,Raf-1 detected by immunoblotting,Raf-1 [4]; [13],+
same,Raf-1 detected by immunoblotting,Raf-1 [4]; [14],+
COC1C=CC=C(C)C(=O)NC2=CC(=O)C(NCCCCNCCCCCCC3(O)CCC4C5CCc6cc(O)ccc6C5CCC43C)=C(CC(C)CC(OC)C(O)C(C)C=C(C)C1OC(N)=O)C2=O (stereo not drawn) [FIG. 9F],"relative activity, raf-1",Raf-1 [6],−
CCCCCCNC=C1C(=O)OC(COC)C2(C)C1=C(O)C(=O)C1=C2C(OC(C)=O)CC2(C)C(=O)CCC12 (stereo not drawn) [Z-analog 1],inhibition of PI3 kinase activity,PI3 kinase,inactive
COC1C=CC=C(C)C(=O)NC2=CC(=O)C(NCCCCCCN(C)CCCCCCC3(O)CCC4C5CCc6cc(O)ccc6C5CCC43C)=C(CC(C)CC(OC)C(O)C(C)C=C(C)C1OC(N)=O)C2=O (stereo not drawn) [FIG. 9G],"relative activity, raf-1",Raf-1 [6],−
